Test results from patent US10273279B2, “Protease activated receptor-1 (PAR1) derived cytoprotective polypeptides and related methods” (THE SCRIPPS RESEARCH INSTITUTE, priority 2011, dated 2019).

Tests used:
[1] = system: EA.hy.926 endothelial cells; test: Staurosporine-induced endothelial cell apoptosis (Apopercentage dye); format: cell-based, human; settings: 4 hrs pretreatment, 50 μM NPND, 50 μM scr-NPND or 10 μM TFLL, staurosporine 10 μM
Method: Activated Protein C (APC) conveys anti-apoptotic activity to EA.hy.926 cells that requires functional PAR1 receptor and APC binding to the endothelial protein C receptor (EPCR). See, e.g., Mosnier at al., Biochem J. 2003; 373:65-70; and Mosnier at al., Blood. 2007; 109:3161-3172.
Methods: EA.hy.926 cells (ATCC: CRL-2922) were grown in 24 well plates in DMEM (Invitrogen #12430) supplemented with glutamax (Invitrogen #35050) and 10% FBS (Hyclone #35-011-CV) in a 37° C. cell incubator with a humidified atmosphere and 5% CO2 in air until confluency. Cells were treated for 4 hrs with vehicle control, 50 μM NPND, 50 μM scr-NPND or 10 μM TFLL after which staurosporine (10 μM) and the Apopercentage dye (Biocolor) were added according the manufacturer's instructions. After 1 hr cells were washed with 2×1 ml PBS and 110 μl of the dye release agent was added to the cells. Subsequently 100 μl aliquots were transferred to a black 96 well plate and fluorescence was measured (530 nm excitation/580 nm emission). Apoptosis was expressed as a percentage of cells treated with 10 mM H2O2 for which apoptosis was set at 100%.

[2] = target: T1, synthetic PAR1 peptide (TR33-62) (Homo sapiens, UniProt P25116); test: Cleavage of synthetic PAR1 peptide TR33-62 by APC or thrombin, reverse phase HPLC and MALDI-TOF; format: biochemical; settings: APC 500 nM or thrombin 5 nM, TR33-62 100 μM, HBS pH 7.4
T1 construct: purchased Biosynthesis; host or cells: chemical synthesis
T1 sequence (P25116 33-62 limits assumed): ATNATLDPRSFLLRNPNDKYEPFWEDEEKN
From the text: Samples were subjected to reverse phase HPLC on a C18 column while the eluent was monitored at 214 nm during a 0%-67% gradient of acetonitrile in water containing 0.1% trifluoroacetic acid. Peptide fragments were collected and subjected to MALDI-TOF (Scripps mass spectrometry core facility) analysis.

[3] = target: T2, endogenous PAR1 on EA.hy.926 endothelial cells (Homo sapiens, UniProt P25116); test: On cell Western (OCW) immunoassay of PAR1 cleavage on EA.hy.926 endothelial cells; format: cell-based; settings: 1 hr at 4° C., 0.5 nM thrombin or 25 nM APC
T2 construct: untransfected EA.hy.926 endothelial cells expressing endogenous EPCR and PAR1; host or cells: EA.hy.926 endothelial cells
T2 sequence (P25116 22-425): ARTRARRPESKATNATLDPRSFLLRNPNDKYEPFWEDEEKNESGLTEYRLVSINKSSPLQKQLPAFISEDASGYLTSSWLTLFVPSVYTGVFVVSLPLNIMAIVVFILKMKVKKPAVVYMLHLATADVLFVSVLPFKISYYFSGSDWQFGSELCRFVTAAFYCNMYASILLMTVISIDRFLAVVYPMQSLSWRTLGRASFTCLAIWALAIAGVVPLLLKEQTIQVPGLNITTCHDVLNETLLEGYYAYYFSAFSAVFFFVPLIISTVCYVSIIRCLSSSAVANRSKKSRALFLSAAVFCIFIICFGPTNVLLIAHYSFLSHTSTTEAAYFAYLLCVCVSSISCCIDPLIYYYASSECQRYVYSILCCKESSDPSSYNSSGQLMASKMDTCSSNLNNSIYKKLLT
Method: Subsequently, these antibodies were used in an on cell Western (OCW) immunoassay on EA.hy.926 endothelial cells to determine whether APC cleaves PAR1 at Arg^46 in the presence of endogenous PAR1 and EPCR expression. […] Incubations were performed at 4° C. to minimize receptor recycling and internalization. After fixation and staining, antibody signals were normalized for total cell number using the cell permeable nuclear dye Draq5 and antibody signals for the goat anti-PAR1 antibodies (Ab87 and Origene) and ATAP2 were expressed as a fraction of the signal obtained for WEDE15 reflecting the total PAR1 present on the cell surface.
Detailed methods and steps used for the study shown in FIG. 5 are as follows: EA.hy.926 cells (ATCC: CRL-2922) were grown in black clear bottom 96 well plates (Nunc) in DMEM (Invitrogen #12430) supplemented with glutamax (Invitrogen #35050) and 10% FBS (Hyclone #35-011-CV) in a 37° C. cell incubator with a humidified atmosphere and 5% CO2 in air until confluency. […] After final washing with PBS/0.1% Tween, IR fluorescence of bound antibodies was determined using the Odyssey (Licor). Background fluorescence was determined by omitting the primary antibody and subtracting background values from all observed values.

decrease of ATAP2 signal compared to WEDE15 [3]	Substance	inhibition of staurosporine-induced endothelial cell apoptosis [1]	inhibition of staurosporine-induced endothelial cell apoptosis ([1]; listed as NPND-peptide)	cleavage sites in TR33-62 peptide [2]
–	NPNDKYEPFWEDEEKNESGL (listed as Homo sapiens) [TR47-66]	significantly inhibited	inhibited staurosporine-induced endothelial cell apoptosis	–
50%	APC: Activated Protein C, serine protease with anticoagulant and cytoprotective cell signaling activities	–	–	cleaves this PAR1 peptide at Arg^46 as well as at Arg^41
–	GDENENEKPNWYELKEPDSF (scrambled sequence) [scr-TR47-66, control scrambled TR47-66 peptide containing scrambled residues 47-66, reference compound]	did not convey detectable anti-apoptotic effects	–	–
not significantly different	thrombin	–	–	cleavage at Arg^41
